Experimental data taken from publication PMC10671052, “Naphthyl-Substituted Indole and Pyrrole Carboxylic Acids as Effective Antibiotic Potentiators—Inhibitors of Bacterial Cystathionine γ-Lyase” (International Journal of Molecular Sciences, 2023).
Values after ≈ are worked out from the molar mass of the structure shown. Where two headings read alike, the source gives them in different places.

How the values were obtained:
[1] = molecular target: S. aureus cystathionine-γ-lyase (bCSE) (Staphylococcus aureus, UniProt A0A0H3K724); assay: IC50 assay: inhibition of H2S production by purified bCSE, WSP5 fluorescent probe; type: biochemical
Description: (§1) Fluorescence spectrophotometry-based inhibitory activity toward purified bCSE and hCSE was measured in a 96-well nonbinding black plate (Greiner, Kremsmunster, Austria) at 100 μL of the reaction mixture per well. bCSE and hCSE (0.02 μM) were preincubated in a thermoshaker (Biosan, Riga, Latvia) (30 °C, 300 rpm) for 40 min in 50 mM sodium phosphate buffer (pH 8.0), supplemented with 10 μM pyridoxal 5′-phosphate (Sigma-Aldrich, St. Louis, MO, USA), 0.1% of Tween 20 (Sigma-Aldrich, St. Louis, MO, USA), and 1.2 μM Washington State Probe-5 (Cayman Chemical, Ann Arbor, MI, USA) (excitation: 500 nm, emission: 530 nm) at different concentrations of a tested inhibitor. The reaction was initiated by the addition of 100 μM L-cysteine (TCI, Chennai, Tamil Nadu, India) in 50 mM sodium phosphate buffer pH 8.0 to the reaction mixture, and the enzymatic activity was monitored for 12 h using a CLARIOstar Plus instrument (BMG LABTECH GmbH, Ortenberg, Germany). The 100 µM L-cysteine concentration used in the experiments corresponds to the maximal reported intracellular concentration in bacteria. The data were normalized to the positive and negative controls, and IC50 values were obtained by fitting to a four-parameter sigmoidal curve (inhibitor vs. response, variable slope model) in GraphPad Prism 8 software (GraphPad by Dotmatics, Boston, MA, USA). Each experiment was conducted with 2–3 technical replicates. IC50 values were means of at least two independent experiments.
(§2) For the production of S. aureus cystathionine-γ-lyase (bCSE) and of human cystathionine-γ-lyase (hCSE), plasmids pSUMO:saCSE (Addgene # 54336) and pNIC28-Bsa4 (Addgene # 42365) were employed. Cultivation of a competent E. coli cell strain (Thermo Fisher Scientific, Waltham, MA, USA), transformed with a target plasmid, was carried out on a selective solid medium with kanamycin. Bacterial cells harboring the plasmid vector were cultured at 37 °C and 180 rpm until OD600 = 0.65. Then, isopropyl β-D1-thiogalactopyranoside (IPTG) was added to a final concentration of 1 mM. To obtain bCSE, the cells were cultured for 3.5 h at 37 °C; to obtain hCSE, the cells were cultured for 18–20 h at 25 °C. After centrifugation, cells were resuspended in a buffer composed of 50 mM Tris–HCl, at a pH of 8.0, and 300 mM sodium chloride. After that, the cells were lysed by ultrasonication, with a pulse duration of 15 s and an interval between pulses of 15 s. The amplitude of the ultrasonic vibrations was 50% of the maximum. After lysis, samples were centrifuged for 15 min (20,000× g at 4 ℃). The pH of the supernatant obtained after the centrifugation was adjusted to 7.5 by the addition of a 1 M solution of Tris–OH. Then, the test sample was subjected to filtration through a polyethersulfone membrane with a pore diameter of 0.22 μm.

[2] = molecular target: T1, human cystathionine-γ-lyase (hCSE) (Homo sapiens, UniProt P32929); assay: IC50 assay: inhibition of H2S production by purified hCSE, WSP5 fluorescent probe; type: biochemical
T1 construct: His6-TEV (N, cleaved yes); host or cells: E. coli
Description: as §1, §2

HEK293 cells = assay: HEK293 cytotoxicity assay (Alamar Blue); type: cell-based; details: HEK293, 72 h
Description: The HEK 293 cell line was obtained from the European Collection of Authenticated Cell Cultures (ECACC, cat. # 85120602, Salisbury, UK). The cells were grown in a monolayer culture in Dulbecco’s Modified Eagle’s Medium (DMEM) (PanEco, Moscow, Russia), supplemented with 2 mM L-glutamine, 1% of a penicillin/streptomycin solution (Capricorn Scientific, Ebsdorfergrund, Germany), and 10% of heat inactivated fetal bovine serum (HyClone, Cytiva, Marlborough, MA, USA) in a humidified atmosphere containing 5% of CO2 at 37 °C (Binder, Germany). For the assay, HEK 293 cells were seeded in a 96-well plate (Corning, NY, USA) in 100 μL of the complete culture medium, at a final density of 2 × 10^3 cells/well, and were cultured for 24 h for proper attachment. Subsequently, the medium was removed, and the cells were exposed to a tested inhibitor at different concentrations for 72 h in 100 μL of the fresh complete culture medium. The sensitivity of the cells to the compounds was detected using the vital dye Alamar Blue (Invitrogen, San Diego, CA, USA). The Alamar Blue assay was performed according to the procedure described by O’Brien et al.. After incubation with the tested bCSE inhibitors, 10 μL of the Alamar Blue reagent was added into each well, the cell culture plates were returned to the humidified incubator, and the fluorescence was read after 3 h. The plates were exposed to an excitation light of 545 nm wavelength, and emission at 600 nm was measured on the CLARIOstar Plus (BMG LABTECH GmbH, Ortenberg, Germany). To determine half-maximal cytotoxic concentration (CC50), a four-parameter sigmoidal curve model (GraphPad Prism 8 software) was fitted to the measurement data.

physchem = type: physicochemical; details: for solubility at 2 h: 25 °C, pH 7.4, aqueous buffer, kinetic from dmso stock
Description: A stock solution of a compound (10 mM in DMSO, 10 μL) was added to 990 μL of 100 mM sodium phosphate buffer (pH 7.4) and incubated at 25 °C for 2 h with constant shaking. The suspension was filtered through the PVDF membrane filter (Merck Millipore, Burlington, MA, USA). To 320 µL of the filtrate, 80 µL of acetonitrile was added and mixed. The mixture was transferred to a vial and analyzed by ultra-high-performance liquid chromatography (UHPLC) with UV detection. Concentrations were calculated from a 5-point calibration curve. The calibration range was 1 to 100 μM. The controls were diclofenac and nicardipine. All compounds were tested in triplicate.

[3] = LogD7.4, miniaturized shake flask method; type: physicochemical; details: 1-octanol / 100 mM sodium phosphate buffer, pH 7.4, 1-octanol / 100 mM sodium phosphate buffer pH 7.4; read-out: Measured logD7.4
Description: Coefficients of distribution between 1-octanol and 100 mM sodium phosphate buffer (pH 7.4) were determined by the miniaturized shake flask method. Namely, 5 μL of a 10 mM compound’s solution in DMSO was dissolved in 245 μL of 1-octanol saturated with phosphate buffer. Next, 500 μL of phosphate buffer saturated with 1-octanol was added, followed by mixing for 3 h. […] After that, 50 μL of the octanol phase (top layer) was aspirated and diluted with 500 μL of 1-octanol saturated with phosphate buffer. Then, the remaining octanol phase was removed; 50 μL of the buffer layer was aspirated and diluted with 500 μL of phosphate buffer saturated with 1-octanol. Both the octanol and phosphate buffer samples were analyzed by LC–MS/MS. The distribution coefficient was determined according to the following equation: logD7.4 = log10 (peak area for octanol sample/peak area for buffer sample). […] All compounds were tested in triplicate.

Caco-2 cell permeability = type: in vitro ADME; details: human
Description: The culture medium consisted of high-glucose DMEM containing 10% of fetal bovine serum, 4 mM L-glutamine, 1% of a solution of nonessential amino acids (PanEco, Moscow, Russia), 100 U/mL penicillin, and 100 μg/mL streptomycin. The cells were maintained for 21 days at 37 °C and 5% CO2. The medium was refreshed every 3 days. A Lucifer yellow rejection assay was applied to determine cell monolayer integrity. […] The Lucifer yellow rejection value was calculated using the equation: LY % rejection = 100*(1−FIb/FIa), where FIb is the fluorescence in the basolateral compartment and FIa is the fluorescence in the apical compartment. […] Both apical-to-basolateral (AB) and basolateral-to-apical (BA) transport were assessed. For apical-to-basolateral transport, 0.3 mL of a test compound solution was added to the apical side, and 0.8 mL of HBSS with 0.5% of BSA was added to the basolateral side. For basolateral-to-apical transport, 0.8 mL of a test compound solution was added to the basolateral side and 0.3 mL of HBSS with 0.5% of BSA was added to the apical side. The Caco-2 cell monolayers were then incubated for 2 h at 37 °C. The pH values of the apical and basolateral compartments were 7.4. […] The supernatant was transferred to a vial and analyzed by liquid chromatography coupled with tandem MS (LC–MS/MS). The AB (or BA) apparent permeability coefficients (Papp, 10^–6 cm/s) were calculated according to the following formula [40, 41]: Papp = (V × ∆C)/(∆t × A × C0), where V is the volume of the receiver compartment (cm^3), C0 is the initial drug concentration in the donor compartment (μM), ∆C is the concentration in the receiver compartment (μM), ∆t is the incubation time (s), and A is the surface area of the cell monolayer (cm^2). An efflux ratio was calculated by dividing Papp (BA) by Papp (AB). All compounds were tested in duplicate.

in vitro = in vitro ADME; details: human, plasma
Description: Plasma protein binding was assessed using RED device inserts with built-in cellulose acetate dialysis membranes (molecular weight cutoff: 8 kDa). The final concentration of the test compound in human plasma was 5 μM. The samples were prepared by placing 300 μL of human plasma into the plasma compartment of the RED device and 500 μL of phosphate-buffered saline (pH 7.4) into the buffer compartment. The RED device was fixed to a shaker, placed in a CO2 (5%) incubator, and incubated for 6 h at 37 °C. After an equilibration step, 100 μL aliquots were taken from each compartment; 100 μL of plasma was added to the buffer compartment aliquot and 100 μL of buffer was added to the plasma compartment aliquot. After mixing, 600 μL of acetonitrile containing an internal standard was added. […] All compounds were tested in duplicate. Fraction bound fb was determined via the following equation: fb (%) = [1 − (Cb/Cp)] × 100, where Cb is the concentration of an analyte in the buffer compartment (μM), and Cp is the concentration of the analyte in the plasma compartment (μM).

[4] = Metabolic stability in rat liver microsomes; details: for microsomal CLint at 1 µM / half-life at 1 µM: rat, microsomes; for microsomal CLint at 1 µM: pH 7.4, CLint; for half-life at 1 µM: pH 7.4, t1/2, rat liver microsomes
Description: The metabolic stability of a test compound was evaluated based on the rate of disappearance during incubation with rat liver microsomes. […] The natural logarithm of a peak area ratio (compound peak area/internal standard peak area) was plotted against incubation time, and the slope of the line was determined.

S. aureus ATCC 25923 = assay: MIC of antibiotics alone and with potentiators, broth microdilution; details: S. aureus ATCC 25923, no potentiator
Description: (§3) Overnight (ON) culture of a specific strain was grown in the liquid Luria–Bertani nutrient medium (LB broth, BD Difco) for 18 h at 37 °C, with agitation at 180 rpm using an Innova 44R orbital shaker (Eppendorf, Hamburg, Germany). After a certain period, 50 µL of the ON culture was transferred into 5 mL of the LB medium and grown for 3 h at 37 °C with agitation. Growth in the liquid medium was assessed by means of turbidity of the suspension, measured using a Densi-La-Meter II densitometer (Erba Lachema s.r.o., Brno, Czech Republic). Then, the bacterial suspension was diluted to the concentration 10^6 cells/mL with sterile LB and used as a seed culture [38, 39].
(§4) For the assessment of MICs, 96-well microtiter plates were utilized at 200 µL of a medium per well. Each well was filled with 100 µL of the seed culture. After that, 10 µL of a solution of each tested synthetic compound (potentiators) was added into each experimental well. Finally, 90 µL of twofold serial dilutions of an antibiotic in a sterile LB was added into individual wells.
(§5) As a positive control, we set up wells with 100 µL of the bacterial culture and 100 µL of the sterile LB medium. […] Negative-control wells contained 200 µL of the sterile medium. The plates were incubated in a thermostat for 18–20 h at 37 °C. The bacterial growth was assessed as optical density at 600 nm on a CLARIOstar microplate reader (BMG LABTECH GmbH, Ortenberg, Germany)).

[5] = system: S. aureus INA00761 (MRSA); assay: as above; details: no potentiator
Description: as §3, §4, §5

Sequence of S. aureus cystathionine-γ-lyase (bCSE) (A0A0H3K724 entry or part of it): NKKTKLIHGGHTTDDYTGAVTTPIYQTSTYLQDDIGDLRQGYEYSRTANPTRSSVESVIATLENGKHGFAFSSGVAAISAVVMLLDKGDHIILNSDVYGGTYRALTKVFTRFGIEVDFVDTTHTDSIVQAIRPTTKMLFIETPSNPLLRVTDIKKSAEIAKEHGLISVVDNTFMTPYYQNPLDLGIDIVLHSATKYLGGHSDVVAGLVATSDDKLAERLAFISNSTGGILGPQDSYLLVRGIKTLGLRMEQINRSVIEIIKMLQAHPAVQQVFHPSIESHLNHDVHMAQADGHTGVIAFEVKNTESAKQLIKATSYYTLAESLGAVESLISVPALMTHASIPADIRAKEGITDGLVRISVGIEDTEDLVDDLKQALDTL
T1 sequence (P32929 whole entry): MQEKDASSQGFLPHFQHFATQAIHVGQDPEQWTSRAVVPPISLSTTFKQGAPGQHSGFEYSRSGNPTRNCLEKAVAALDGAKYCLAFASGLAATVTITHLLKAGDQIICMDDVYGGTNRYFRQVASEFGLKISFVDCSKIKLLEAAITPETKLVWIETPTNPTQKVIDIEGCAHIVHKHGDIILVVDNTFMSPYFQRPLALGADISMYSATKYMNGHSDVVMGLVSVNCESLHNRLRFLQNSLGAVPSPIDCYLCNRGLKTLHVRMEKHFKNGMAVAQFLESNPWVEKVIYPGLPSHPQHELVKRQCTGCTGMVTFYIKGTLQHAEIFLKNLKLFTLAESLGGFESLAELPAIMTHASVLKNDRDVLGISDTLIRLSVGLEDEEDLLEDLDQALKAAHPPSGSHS

For `O=C([O-])c1cn(Cc2cccc3ccccc23)c2ccccc12.[Na+]` [Compound 1c], the “activity toward bCSE (in words)” value [1] was “did not show noticeable activity”, the “activity toward hCSE (in words)” value [2] was “did not show noticeable activity” and the IC50 ([2]; read-out: IC50 biochemical assay hCSE; purified hCSE 0.02 μM, 100 μM L-cysteine, WSP5 probe, mean ± SD) was greater than 500 µM. The CC50 (HEK293 cells) was 308 ± 75.5 µM.
Work on `O=C(O)c1ccc2ccn(Cc3cccc4ccccc34)c2c1` [Compound 4a] yielded an IC50 ([1]; IC50 (uM), bCSE enzymatic IC50, rounded, repeated in Table S13) of 138 µM, an IC50 ([1]; IC50 (uM), bCSE enzymatic IC50, rounded, repeated in Table S14) of 138 µM and an IC50 ([1]; IC50 (uM), bCSE enzymatic IC50, rounded, repeated in Table S15) of 138 µM. For the same molecule, the IC50 ([1]; IC50 biochemical assay bCSE, purified bCSE 0.02 μM, 100 μM L-cysteine, WSP5 probe, mean ± SD) was 138 ± 9 µM, the IC50 ([2]; purified hCSE 0.02 μM, 100 μM L-cysteine, WSP5 probe, mean ± SD; read-out: IC50 biochemical assay hCSE) was greater than 500 µM and the CC50 (HEK293 cells) was 392 ± 21.8 µM.
For `O=C(O)Cc1ccccc1Nc1c(Cl)cccc1Cl` [Diclofenac sodium], the solubility at 2 h (physchem) was greater than 100 µM.
In the case of `COC(=O)C1=C(C)NC(C)=C(C(=O)OCCN(C)Cc2ccccc2)C1c1cccc([N+](=O)[O-])c1` (centres unmarked) [Nicardipine], the solubility at 2 h (physchem) is reported as 5.16 ± 0.23 µM (≈ 2.47 µg/mL) and the Solubility (physchem; 2 h, pH 7.4) is reported as 5.2 µM (≈ 2.49 µg/mL).
`CC(=O)Nc1ccc(O)cc1` [Paracetamol, reference compound] gave a logD [3] of 0.29 ± 0.02.
Molecule `CC(C)NCC(O)COc1cccc2ccccc12` (centres unmarked) [Propranolol, reference compound] has an efflux ratio at 2 h, 10 μM (Caco-2 cell permeability; Caco-2, Papp (BA) / Papp (AB)) of 1.04, a Papp A→B at 2 h, 10 μM (Caco-2 cell permeability; Caco-2, 10 μM, 2 h, pH 7.4) of 30.2 ± 2.9 ×10⁻⁶ cm/s and a Papp B→A at 2 h, 10 μM (Caco-2 cell permeability; Caco-2, 10 μM, 2 h, pH 7.4) of 31.6 ± 1.1 ×10⁻⁶ cm/s. The Fraction bound fb (in vitro; 6 h, 5 μM, pH 7.4) was 85.8% and the fraction unbound at 6 h, 5 μM (in vitro; pH 7.4, Fraction bound fb) was 0.142.
Work on `O=c1ccc2ccc(O)cc2o1` [Umbelliferone] yielded a CLint ([4]; rat liver microsomes, cofactor NADPH, 1 µM) of 8.8 µL/min/mg, a microsomal CLint at 1 µM ([4]; rat liver microsomes, cofactor NADPH) of 8.81 ± 1 µL/min/mg and a microsomal CLint at 1 µM ([4]; rat liver microsomes, cofactor UDPGA) of 180 ± 0.7 µL/min/mg. The half-life at 1 µM ([4]; cofactor NADPH) was 2.64 ± 0.301 h and the half-life at 1 µM ([4]; cofactor UDPGA) was 0.1283 ± 0.0005 h.
For `CC1(C)S[C@@H]2[C@H](NC(=O)[C@H](N)c3ccccc3)C(=O)N2[C@H]1C(=O)O` [amp, ampicillin], the “MIC of antibiotic alone” value (S. aureus ATCC 25923) was 0.3 µg/mL, the “MIC of antibiotic alone” value [5] was “res” and the “MIC of antibiotic alone” value ([5]; listed as ampicillin) was “resistant”.
With `NC[C@H]1O[C@H](O[C@H]2[C@H](O)[C@@H](O[C@H]3O[C@H](CO)[C@@H](O)[C@H](N)[C@H]3O)[C@H](N)C[C@@H]2N)[C@H](O)[C@@H](O)[C@@H]1O` [km, kanamycin] the “MIC of antibiotic alone” value (S. aureus ATCC 25923) was 12.5 µg/mL, the “MIC of antibiotic alone” value [5] was “res” and the “MIC of antibiotic alone” value ([5]; listed as kanamycin) was “resistant”.
In the case of `CCn1cc(C(=O)O)c(=O)c2cc(F)c(N3CCNCC3)cc21` [nor, norfloxacin], the “MIC of antibiotic alone” value (S. aureus ATCC 25923) is reported as 2.5 µg/mL and the “MIC of antibiotic alone” value [5] is reported as 10 µg/mL.
